#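 Briefly, cells in 96-well plates were exposed to five compound concentrations for 48 h, and endpoints were estimated by linear interpolation. GI50 marks 50% less growth.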 Active and inactive are the calls of the source. Cut-off read from the data, not from the text of the source: active = GI50 up to about 1.1 µM and inactive = higher.
# Key:
# Experiment in all cases: growth of human tumour cells (NCI), 48 h
# [1] = system: 786-0
# [2] = system: ACHN
# [3] = system: CAKI-1
# [4] = system: CCRF-CEM
# [5] = system: COLO 205
# [6] = system: DU-145
# [7] = system: EKVX
# [8] = system: HCC 2998
# [9] = system: HCT-116
# [10] = system: HCT-15
# [11] = system: HL-60
# [12] = system: HOP-62
# [13] = system: HOP-92
# [14] = system: HT-29
# [15] = system: Hs-578T
# [16] = system: IGROV-1
# [17] = system: K562
# [18] = system: KM12
# [19] = system: LOX IMVI
# [20] = system: M14
# [21] = system: MCF7
# [22] = system: MDA-MB-231
# [23] = system: MDA-MB-435
# [24] = system: MDA-N
# [25] = system: MOLT-4
# [26] = system: Malme-3M
# [27] = system: NCI-H226
# [28] = system: NCI-H23
# [29] = system: NCI-H460
# [30] = system: NCI-H522
# [31] = system: NCI/ADR-RES
# [32] = system: OVCAR-3
# [33] = system: OVCAR-4
# [34] = system: OVCAR-5
# [35] = system: OVCAR-8
# [36] = system: PC-3
# [37] = system: RPMI-8226
# [38] = system: RXF 393
# [39] = system: SF-268
# [40] = system: SF-295
# [41] = system: SF-539
# [42] = system: SK-MEL-28
# [43] = system: SK-MEL-5
# [44] = system: SK-OV-3
# [45] = system: SN12C
# [46] = system: SNB-19
# [47] = system: SR
# [48] = system: SW-620
# [49] = system: T47D
# [50] = system: TK-10
# [51] = system: UACC-257
# [52] = system: UACC-62
# [53] = system: A549
# [54] = system: SNB-75
# [55] = system: U-251
# [56] = system: SK-MEL-2
compound,measurement,setting,value
O=c1oc2c/c(=C\c3ccccn3)c(=O)c3cccc1c3-2,GI50,[1],14.6 µM (inactive)
same,GI50,[2],44.7 µM (inactive)
same,GI50,[3],> 100 µM (inactive)
same,GI50,[4],33.8 µM (inactive)
same,GI50,[5],> 100 µM (inactive)
same,GI50,[6],> 100 µM (inactive)
same,GI50,[7],> 100 µM (inactive)
same,GI50,[8],> 100 µM (inactive)
same,GI50,[9],35.2 µM (inactive)
same,GI50,[10],> 100 µM
same,GI50,[11],> 100 µM (inactive)
same,GI50,[12],15.4 µM (inactive)
same,GI50,[13],> 100 µM (inactive)
same,GI50,[14],> 100 µM (inactive)
same,GI50,[15],> 100 µM (inactive)
same,GI50,[16],90.8 µM (inactive)
same,GI50,[17],> 100 µM (inactive)
same,GI50,[18],50.4 µM (inactive)
same,GI50,[19],29 µM (inactive)
same,GI50,[20],> 100 µM (inactive)
same,GI50,[21],> 100 µM (inactive)
same,GI50,[22],31.8 µM (inactive)
same,GI50,[23],> 100 µM (inactive)
same,GI50,[24],> 100 µM (inactive)
same,GI50,[25],49.3 µM (inactive)
same,GI50,[26],72.3 µM (inactive)
same,GI50,[27],28.3 µM (inactive)
same,GI50,[28],> 100 µM (inactive)
same,GI50,[29],> 100 µM (inactive)
same,GI50,[30],16.1 µM (inactive)
same,GI50,[31],52.7 µM (inactive)
same,GI50,[32],7.59 µM (inactive)
same,GI50,[33],> 100 µM (inactive)
same,GI50,[34],> 100 µM (inactive)
same,GI50,[35],16.5 µM (inactive)
same,GI50,[36],72.6 µM (inactive)
same,GI50,[37],28.6 µM (inactive)
same,GI50,[38],5.56 µM (inactive)
same,GI50,[39],30.8 µM (inactive)
same,GI50,[40],> 100 µM (inactive)
same,GI50,[41],19.7 µM (inactive)
same,GI50,[42],> 100 µM (inactive)
same,GI50,[43],> 100 µM (inactive)
same,GI50,[44],> 100 µM (inactive)
same,GI50,[45],95.5 µM (inactive)
same,GI50,[46],68.2 µM (inactive)
same,GI50,[47],54.8 µM (inactive)
same,GI50,[48],> 100 µM (inactive)
same,GI50,[49],38.1 µM (inactive)
same,GI50,[50],66.8 µM (inactive)
same,GI50,[51],> 100 µM (inactive)
same,GI50,[52],> 100 µM (inactive)
CC[C@@]1(O)C(=O)OCc2c1cc1n(c2=O)Cc2c-1nc1ccccc1c2/C=N/c1ccccc1N[C@@H]1c2cc3c(cc2[C@@H](c2cc(OC)c(O)c(OC)c2)[C@H]2C(=O)OC[C@@H]21)OCO3,GI50,[1],0.0213 µM (active)
same,GI50,[53],0.0411 µM (active)
same,GI50,[2],< 0.0145 µM (active)
same,GI50,[3],0.0225 µM (active)
same,GI50,[9],0.0469 µM (active)
same,GI50,[12],< 0.0189 µM (active)
same,GI50,[13],0.224 µM (active)
same,GI50,[19],0.0138 µM (active)
same,GI50,[20],0.04 µM (active)
same,GI50,[21],< 0.0115 µM (active)
same,GI50,[25],< 0.01 µM (active)
same,GI50,[26],0.394 µM (active)
same,GI50,[27],0.0702 µM (active)
same,GI50,[29],< 0.01 µM (active)
same,GI50,[36],0.284 µM (active)
same,GI50,[37],0.27 µM (active)
same,GI50,[39],0.0285 µM (active)
same,GI50,[43],0.0955 µM (active)
same,GI50,[54],0.051 µM (active)
same,GI50,[48],0.132 µM (active)
same,GI50,[49],0.0236 µM (active)
same,GI50,[55],0.296 µM (active)
same,GI50,[51],0.412 µM (active)
same,GI50,[52],0.0264 µM (active)
N=C(N)c1ccc(OCCCCCOc2ccc(C(=N)N)cc2)cc1 [PENTAMIDINE],GI50,[1],13.7 µM (inactive)
same,GI50,[53],11 µM (inactive)
same,GI50,[2],23.6 µM (inactive)
same,GI50,[3],57 µM (inactive)
same,GI50,[6],13.2 µM (inactive)
same,GI50,[7],19.1 µM (inactive)
same,GI50,[8],12.2 µM (inactive)
same,GI50,[9],22.4 µM (inactive)
same,GI50,[10],24.8 µM
same,GI50,[11],19.3 µM (inactive)
same,GI50,[12],14.9 µM (inactive)
same,GI50,[13],28.5 µM (inactive)
same,GI50,[15],14.9 µM (inactive)
same,GI50,[17],3.45 µM (inactive)
same,GI50,[19],16.1 µM (inactive)
same,GI50,[20],15.5 µM (inactive)
same,GI50,[21],9.55 µM (inactive)
same,GI50,[22],16.7 µM (inactive)
same,GI50,[23],16.6 µM (inactive)
same,GI50,[24],15.6 µM (inactive)
same,GI50,[28],10.4 µM (inactive)
same,GI50,[29],2.98 µM (inactive)
same,GI50,[31],71.6 µM (inactive)
same,GI50,[32],14.3 µM (inactive)
same,GI50,[33],10.9 µM (inactive)
same,GI50,[34],21 µM (inactive)
same,GI50,[35],13.7 µM (inactive)
same,GI50,[36],18.5 µM (inactive)
same,GI50,[38],16.7 µM (inactive)
same,GI50,[39],17.2 µM (inactive)
same,GI50,[41],12.6 µM (inactive)
same,GI50,[42],14.7 µM (inactive)
same,GI50,[56],9.06 µM (inactive)
same,GI50,[45],6.55 µM (inactive)
same,GI50,[46],10.7 µM (inactive)
same,GI50,[49],7.76 µM (inactive)
same,GI50,[50],18.9 µM (inactive)
same,GI50,[55],8.26 µM (inactive)
same,GI50,[52],12.2 µM (inactive)
